Bounds are passed on as bounds.

Assay [1] concerns ADGRF1. As to the kind of experiment: Identification of phospholipid ligands by LC–MS/MS. In kind it is binding, human. The procedure: The identification of phospholipids specifically bound to ADGRF1 was performed as previously described[33],[50] with minor modifications. In brief, ADGRF1 and control ADGRD1 protein were reduced with 5 mM TCEP at 25 °C for 30 min and alkylated with 20 mM idoacetamide at 25 °C for 30 min. Then the protein samples were digested with trypsin (Promega) at an enzyme-to-protein ratio of 1:50 (w/w) at 37 °C overnight. The digested proteins were dried in a vacuum concentrator and then extracted with 400 μl of ice-cold methanol:water (9:1, v/v) by vortex and sonication. After centrifugation at 12,000g for 15 min at 4 °C, the supernatants were collected and lyophilized under vacuum. The lipid extracts were resuspended in methanol:chloroform (9:1, v/v) to an equivalent concentration of 2 μM. Samples were analysed on a Q Exactive mass spectrometer (Thermo Fisher Scientific) operating in the positive ion mode coupled to a Waters Acquity UPLC system (Waters). […] The specificity of lipid binding to ADGRF1 was assessed by the ratio of EIC peak areas for each lipid in the ADGRF1 versus the control sample. […]

The subject of assay [2] is ADGRF1. The settings on record: cited from earlier work.
Assay [3] relates to neurogenesis, neuritogenesis and synaptogenesis. Conditions: ref [35]; cited from earlier work.
In assay [4] the target is T1, ADGRD1 (GPR133), residues T545–T827 (ADGRD1-construct) (human) (UniProt Q6QNK2).
T1 sequence: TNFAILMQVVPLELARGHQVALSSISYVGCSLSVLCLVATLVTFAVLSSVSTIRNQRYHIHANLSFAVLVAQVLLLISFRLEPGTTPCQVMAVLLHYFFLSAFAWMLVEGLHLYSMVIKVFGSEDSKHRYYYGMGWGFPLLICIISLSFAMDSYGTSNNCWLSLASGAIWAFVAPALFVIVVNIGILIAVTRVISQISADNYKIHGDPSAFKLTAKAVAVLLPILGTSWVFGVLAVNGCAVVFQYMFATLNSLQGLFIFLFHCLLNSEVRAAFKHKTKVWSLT

In assay [5] the target is T2, ADGRF1 (GPR110), residues V251–K860 (ADGRF1-construct 1) (human) (UniProt Q5T601).
T2 sequence: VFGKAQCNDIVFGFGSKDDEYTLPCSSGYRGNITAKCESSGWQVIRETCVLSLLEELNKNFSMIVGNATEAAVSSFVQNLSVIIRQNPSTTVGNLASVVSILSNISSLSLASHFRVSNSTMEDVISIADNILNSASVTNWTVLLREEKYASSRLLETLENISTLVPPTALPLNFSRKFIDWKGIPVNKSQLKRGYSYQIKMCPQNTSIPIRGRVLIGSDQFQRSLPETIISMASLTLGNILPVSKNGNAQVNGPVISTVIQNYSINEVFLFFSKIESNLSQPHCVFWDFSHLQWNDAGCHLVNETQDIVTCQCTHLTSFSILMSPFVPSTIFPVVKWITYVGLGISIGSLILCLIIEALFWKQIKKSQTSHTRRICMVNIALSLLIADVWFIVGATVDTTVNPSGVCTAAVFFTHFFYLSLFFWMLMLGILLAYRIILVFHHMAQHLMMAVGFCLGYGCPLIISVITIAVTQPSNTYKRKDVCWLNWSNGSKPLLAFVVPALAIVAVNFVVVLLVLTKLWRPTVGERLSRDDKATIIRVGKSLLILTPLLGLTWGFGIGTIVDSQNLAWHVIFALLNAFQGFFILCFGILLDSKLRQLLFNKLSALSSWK

Regarding `CCCCCCCCCCCCCCCC(=O)OC[C@@H](O)COP(=O)([O-])OCC[N+](C)(C)C` [LPC 16:0], in assay [1] (ADGRD1 as control, specific binder: mean EIC ratio > 2 and P < 0.05, n = 3), the “specific binding to ADGRF1 (lipidomics)” value is recorded as “bound specifically to ADGRF1”. Moreover, the “EIC peak ratio, ADGRF1 versus ADGRD1 (mean)” value in assay [1] (ADGRD1 protein as control, methanol:water lipid extract, P < 0.05, three independent experiments) is reported as over 2.

`CC/C=C\C/C=C\C/C=C\C/C=C\C/C=C\C/C=C\CCC(=O)NCCO` [synaptamide, N-docosahexaenoylethanolamine]: the “stalk dependence of ADGRF1 activation” value in assay [2] (believed to act through the extracellular GAIN domain, ref [36]) is given as “activates the receptor in a stalk-independent manner”. For the same molecule, the “agonism at ADGRF1” value in assay [2] (ref [35]) is “endogenous small-molecule agonist for ADGRF1”. In addition, the “neurogenesis, neuritogenesis and synaptogenesis” value in assay [3] is “promotes neurogenesis, neuritogenesis and synaptogenesis”.

As for TSFSILMSPFVP [synthetic stalk peptide of ADGRF1 (pF1)], the fold decrease in G protein activation of wild-type ADGRD1 in HEK293F cells (BRET assay with TRUPATH biosensors): potency of pF1 against that of pD1 in assay [4] worked out at 59 fold.

Consider TNFAILMQVVPLE [synthetic stalk peptide of ADGRD1 (pD1)], for which, in assay [5], the G protein activation of wild-type ADGRF1 in HEK293F cells (BRET assay with TRUPATH biosensors): EC50 of pD1 against that of pF1 was found to be 2 fold.

These data come from PMC9046087, “Structural basis of tethered agonism of the adhesion GPCRs ADGRD1 and ADGRF1” (Nature, 2022).
